Reference: patent US9315520B2, “2-amino-6-methyl-4,4a,5,6-tetrahydropyrano[3,4-d][1,3]thiazin-8a(8H)-yl-1,3-thiazol-4-yl amides” (Pfizer Inc., priority 2014, dated 2016)
pIC50: −log10 of the molar value. Counter-ions that a name gives are not always drawn.

What follows are molecules tested against BACE1 (Homo sapiens (Human), UniProt P56817) (assay: BACE1 Cell-Free Assay (fluorescence polarization)). Details: geometric mean of 2-4 determinations unless otherwise indicated (b: ≧5; c: single determination); read-out: BACE1 Cell-free Assay IC50.
Sequence of BACE1 (P56817 46-457): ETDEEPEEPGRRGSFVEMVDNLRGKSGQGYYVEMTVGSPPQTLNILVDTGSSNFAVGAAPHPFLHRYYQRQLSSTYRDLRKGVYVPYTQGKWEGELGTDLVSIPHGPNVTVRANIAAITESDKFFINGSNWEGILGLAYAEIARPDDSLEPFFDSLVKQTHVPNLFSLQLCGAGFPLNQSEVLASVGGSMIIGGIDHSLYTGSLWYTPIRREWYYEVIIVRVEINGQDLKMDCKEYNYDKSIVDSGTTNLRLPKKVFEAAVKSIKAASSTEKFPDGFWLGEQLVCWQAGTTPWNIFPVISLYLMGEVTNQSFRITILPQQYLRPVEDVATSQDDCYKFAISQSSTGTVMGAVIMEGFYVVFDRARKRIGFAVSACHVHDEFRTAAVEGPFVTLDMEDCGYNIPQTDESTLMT
Format: biochemical
With C[C@H]1C[C@H]2CSC(N)=N[C@@]2(c2nc(NC(=O)c3ccon3)cs2)CO1 [Example 77, N-{2-[(4aR,6S,8aR)-2-amino-6-methyl-4,4a,5,6-tetrahydropyrano[3,4-d][1,3]thiazin-8a(8H)-yl]-1,3-thiazol-4-yl}-1,2-oxazole-3-carboxamide, trifluoroacetate salt] the pIC50 was 6.11.
C[C@H]1C[C@H]2CSC(N)=N[C@@]2(c2nc(NC(=O)C3CC(F)(F)C3)cs2)CO1 [Example 78, N-{2-[(4aR,6S,8aR)-2-amino-6-methyl-4,4a,5,6-tetrahydropyrano[3,4-d][1,3]thiazin-8a(8H)-yl]-1,3-thiazol-4-yl}-3,3-difluorocyclobutanecarboxamide, trifluoroacetate salt] gave a pIC50 of 5.83.
With C[C@H]1C[C@H]2CSC(N)=N[C@@]2(c2nc(NC(=O)c3ncccn3)cs2)CO1 [Example 79, N-{2-[(4aR,6S,8aR)-2-amino-6-methyl-4,4a,5,6-tetrahydropyrano[3,4-d][1,3]thiazin-8a(8H)-yl]-1,3-thiazol-4-yl}pyrimidine-2-carboxamide, trifluoroacetate salt] the pIC50 was 5.97.
C[C@H]1C[C@H]2CSC(N)=N[C@@]2(c2nc(NC(=O)c3cc(Cl)n(C)n3)cs2)CO1 [Example 81, N-{2-[(4aR,6S,8aR)-2-amino-6-methyl-4,4a,5,6-tetrahydropyrano[3,4-d][1,3]thiazin-8a(8H)-yl]-1,3-thiazol-4-yl}-5-chloro-1-methyl-1H-pyrazole-3-carboxamide] was tested, and the pIC50 was 5.47.
For C[C@H]1C[C@H]2CSC(N)=N[C@@]2(c2nc(NC(=O)c3cnc(C4CC4)cn3)cs2)CO1 [Example 82, N-{2-[(4aR,6S,8aR)-2-amino-6-methyl-4,4a,5,6-tetrahydropyrano[3,4-d][1,3]thiazin-8a(8H)-yl]-1,3-thiazol-4-yl}-5-cyclopropylpyrazine-2-carboxamide, hydrochloride salt], the pIC50 was 5.97.
With C[C@H]1C[C@H]2CSC(N)=N[C@@]2(c2nc(NC(=O)c3cnn(C(F)F)c3)cs2)CO1 [Example 83, N-{2-[(4aR,6S,8aR)-2-amino-6-methyl-4,4a,5,6-tetrahydropyrano[3,4-d][1,3]thiazin-8a(8H)-yl]-1,3-thiazol-4-yl}-1-(difluoromethyl)-1H-pyrazole-4-carboxamide] the pIC50 was 6.17.
C[C@H]1C[C@H]2CSC(N)=N[C@@]2(c2nc(NC(=O)c3ccnn3C3CC3)cs2)CO1 [Example 85, N-{2-[(4aR,6S,8aR)-2-amino-6-methyl-4,4a,5,6-tetrahydropyrano[3,4-d][1,3]thiazin-8a(8H)-yl]-1,3-thiazol-4-yl}-1-cyclopropyl-1H-pyrazole-5-carboxamide, formate salt] was tested, and the pIC50 was 5.37.
CC(C)c1nc(C(=O)Nc2csc([C@]34CO[C@@H](C)C[C@H]3CSC(N)=N4)n2)co1 [Example 86, N-{2-[(4aR,6S,8aR)-2-amino-6-methyl-4,4a,5,6-tetrahydropyrano[3,4-d][1,3]thiazin-8a(8H)-yl]-1,3-thiazol-4-yl}-2-(propan-2-yl)-1,3-oxazole-4-carboxamide] showed a pIC50 of 4.79.
C[C@H]1C[C@H]2CSC(N)=N[C@@]2(c2nc(NC(=O)c3ccn(CC(F)F)n3)cs2)CO1 [Example 87, N-{2-[(4aR,6S,8aR)-2-amino-6-methyl-4,4a,5,6-tetrahydropyrano[3,4-d][1,3]thiazin-8a(8H)-yl]-1,3-thiazol-4-yl}-1-(2,2-difluoroethyl)-1H-pyrazole-3-carboxamide] showed a pIC50 of 6.40.
Molecule COCCn1ccc(C(=O)Nc2csc([C@]34CO[C@@H](C)C[C@H]3CSC(N)=N4)n2)n1 [Example 88, N-{2-[(4aR,6S,8aR)-2-amino-6-methyl-4,4a,5,6-tetrahydropyrano[3,4-d][1,3]thiazin-8a(8H)-yl]-1,3-thiazol-4-yl}-1-(2-methoxyethyl)-1H-pyrazole-3-carboxamide] has a pIC50 of 6.38.
C#CCn1ccc(C(=O)Nc2csc([C@]34CO[C@@H](C)C[C@H]3CSC(N)=N4)n2)n1 [Example 89, N-{2-[(4aR,6S,8aR)-2-amino-6-methyl-4,4a,5,6-tetrahydropyrano[3,4-d][1,3]thiazin-8a(8H)-yl]-1,3-thiazol-4-yl}-1-(prop-2-yn-1-yl)-1H-pyrazole-3-carboxamide] showed a pIC50 of 7.77.
COCc1nc(C(=O)Nc2csc([C@]34CO[C@@H](C)C[C@H]3CSC(N)=N4)n2)co1 [Example 90, N-{2-[(4aR,6S,8aR)-2-amino-6-methyl-4,4a,5,6-tetrahydropyrano[3,4-d][1,3]thiazin-8a(8H)-yl]-1,3-thiazol-4-yl}-2-(methoxymethyl)-1,3-oxazole-4-carboxamide] gave a pIC50 of 6.76.
C[C@H]1C[C@H]2CSC(N)=N[C@@]2(c2nc(NC(=O)c3coc(CC(F)(F)F)n3)cs2)CO1 [Example 91, N-{2-[(4aR,6S,8aR)-2-amino-6-methyl-4,4a,5,6-tetrahydropyrano[3,4-d][1,3]thiazin-8a(8H)-yl]-1,3-thiazol-4-yl}-2-(2,2,2-trifluoroethyl)-1,3-oxazole-4-carboxamide] gave a pIC50 of 6.67.
C[C@H]1C[C@H]2CSC(N)=N[C@@]2(c2nc(NC(=O)C3CCC3)cs2)CO1 [Example 93, N-{2-[(4aR,6S,8aR)-2-amino-6-methyl-4,4a,5,6-tetrahydropyrano[3,4-d][1,3]thiazin-8a(8H)-yl]-1,3-thiazol-4-yl}cyclobutanecarboxamide] was tested, and the pIC50 was 6.42.
In the case of CC#CCOc1ccc(C(=O)Nc2csc([C@]34CO[C@@H](C)C[C@H]3CSC(N)=N4)n2)nc1 [Example 94, N-{2-[(4aR,6S,8aR)-2-amino-6-methyl-4,4a,5,6-tetrahydropyrano[3,4-d][1,3]thiazin-8a(8H)-yl]-1,3-thiazol-4-yl}-5-(but-2-yn-1-yloxy)pyridine-2-carboxamide], the pIC50 was 7.74.
C[C@H]1C[C@H]2CSC(N)=N[C@@]2(c2nc(NC(=O)c3nc(C(F)F)co3)cs2)CO1 [Example 95, N-{2-[(4aR,6S,8aR)-2-amino-6-methyl-4,4a,5,6-tetrahydropyrano[3,4-d][1,3]thiazin-8a(8H)-yl]-1,3-thiazol-4-yl}-4-(difluoromethyl)-1,3-oxazole-2-carboxamide] was tested, and the pIC50 was 7.12.
With Cc1cn(C(F)F)nc1C(=O)Nc1csc([C@]23CO[C@@H](C)C[C@H]2CSC(N)=N3)n1 [Example 96, N-{2-[(4aR,6S,8aR)-2-amino-6-methyl-4,4a,5,6-tetrahydropyrano[3,4-d][1,3]thiazin-8a(8H)-yl]-1,3-thiazol-4-yl}-1-(difluoromethyl)-4-methyl-1H-pyrazole-3-carboxamide] the pIC50 was 8.70.
C[C@H]1C[C@H]2CSC(N)=N[C@@]2(c2nc(NC(=O)c3ncc(OC(F)F)cn3)cs2)CO1 [Example 97, N-{2-[(4aR,6S,8aR)-2-amino-6-methyl-4,4a,5,6-tetrahydropyrano[3,4-d][1,3]thiazin-8a(8H)-yl]-1,3-thiazol-4-yl}-5-(difluoromethoxy)pyrimidine-2-carboxamide] showed a pIC50 of 6.75.
Work on Cc1nc(OC(F)F)cnc1C(=O)Nc1csc([C@]23CO[C@@H](C)C[C@H]2CSC(N)=N3)n1 [Example 98, N-{2-[(4aR,6S,8aR)-2-amino-6-methyl-4,4a,5,6-tetrahydropyrano[3,4-d][1,3]thiazin-8a(8H)-yl]-1,3-thiazol-4-yl}-5-(difluoromethoxy)-3-methylpyrazine-2-carboxamide] yielded a pIC50 of 7.48.
Work on C[C@H]1C[C@H]2CSC(N)=N[C@@]2(c2nc(NC(=O)c3ncc(OC(F)F)cc3Cl)cs2)CO1 [Example 99, N-{2-[(4aR,6S,8aR)-2-amino-6-methyl-4,4a,5,6-tetrahydropyrano[3,4-d][1,3]thiazin-8a(8H)-yl]-1,3-thiazol-4-yl}-3-chloro-5-(difluoromethoxy)pyridine-2-carboxamide] yielded a pIC50 of 7.60.
With COCC(F)(F)c1cnc(C(=O)Nc2csc([C@]34CO[C@@H](C)C[C@H]3CSC(N)=N4)n2)cn1 [Example 100, N-{2-[(4aR,6S,8aR)-2-amino-6-methyl-4,4a,5,6-tetrahydropyrano[3,4-d][1,3]thiazin-8a(8H)-yl]-1,3-thiazol-4-yl}-5-(1,1-difluoro-2-methoxyethyl)pyrazine-2-carboxamide] the pIC50 was 6.66.
With C[C@H]1C[C@H]2CSC(N)=N[C@@]2(c2nc(NC(=O)c3ccc(OCC#N)cn3)cs2)CO1 [Example 101, N-{2-[(4aR,6S,8aR)-2-amino-6-methyl-4,4a,5,6-tetrahydropyrano[3,4-d][1,3]thiazin-8a(8H)-yl]-1,3-thiazol-4-yl}-5-(cyanomethoxy)pyridine-2-carboxamide] the pIC50 was 6.35.
In the case of Cc1oc(CF)nc1C(=O)Nc1csc([C@]23CO[C@@H](C)C[C@H]2CSC(N)=N3)n1 [Example 102, N-{2-[(4aR,6S,8aR)-2-amino-6-methyl-4,4a,5,6-tetrahydropyrano[3,4-d][1,3]thiazin-8a(8H)-yl]-1,3-thiazol-4-yl}-2-(fluoromethyl)-5-methyl-1,3-oxazole-4-carboxamide], the pIC50 was 7.92.
Molecule COCC(F)(F)c1ccc(C(=O)Nc2csc([C@]34CO[C@@H](C)C[C@H]3CSC(N)=N4)n2)nc1 [Example 103, N-{2-[(4aR,6S,8aR)-2-amino-6-methyl-4,4a,5,6-tetrahydropyrano[3,4-d][1,3]thiazin-8a(8H)-yl]-1,3-thiazol-4-yl}-5-(1,1-difluoro-2-methoxyethyl)pyridine-2-carboxamide] has a pIC50 of 6.55.
Molecule CCC(F)(F)Oc1ccc(C(=O)Nc2csc([C@]34CO[C@@H](C)C[C@H]3CSC(N)=N4)n2)nc1 [Example 104, N-{2-[(4aR,6S,8aR)-2-amino-6-methyl-4,4a,5,6-tetrahydropyrano[3,4-d][1,3]thiazin-8a(8H)-yl]-1,3-thiazol-4-yl}-5-(1,1-difluoropropoxy)pyridine-2-carboxamide] has a pIC50 of 6.51.
Molecule C[C@H]1C[C@H]2CSC(N)=N[C@@]2(c2nc(NC(=O)C34CC(C3)C4)cs2)CO1 [Example 105, N-{2-[(4aR,6S,8aR)-2-amino-6-methyl-4,4a,5,6-tetrahydropyrano[3,4-d][1,3]thiazin-8a(8H)-yl]-1,3-thiazol-4-yl}bicyclo[1.1.1]pentane-1-carboxamide] has a pIC50 of 7.07.
